According to patent US12310975B2, “Modulators of BCL6 proteolysis and associated methods of use” (Arvinas Operations, Inc., priority 2019, dated 2025):

Key:
BCL6 [1] = target: T1, BCL6 (Homo sapiens (Human), UniProt P41182); experiment: BCL6 TR-FRET assay (BCL6-Avitag-Biotin / BCoR-Cy5 peptide); format: binding
In short: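 After 30 min room-temperature preincubation of compound titrations with 2 nM biotinylated BCL6-Avitag, 100 nM Cy5-labelled BCoR peptide plus 2 nM Eu-streptavidin were added and TR-FRET read 2 h later. HEPES pH 7.5/125 mM NaCl buffer with Triton X, glutathione (or DTT) and BSA.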

BCL6 [2] = target: T1, BCL6; experiment: Immunofluorescence high content imaging of BCL6 degradation in T47D cells; format: cell-based; conditions: for DC50: class symbols A-D, read-out: EC50 (nM)*; for Dmax: T47D
In short: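 Following a 3-day incubation with serially diluted bifunctional compounds (final top 0.1 or 1 μM), T47D cells were PFA-fixed and immunostained for BCL6. Nuclear BCL6 signal was captured on a high-content imager.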

[3] = class symbols A-D, read-out: IC50 (nM)***

Structure (SMILES): Cn1c(=O)n(CCC(C)(C)O)c2cc(Nc3nc(N4CCC(CN5CCN(c6ccc7c(c6)C(=O)N(C6CCC(=O)NC6=O)C7=O)CC5)CC4)ncc3Cl)ccc21 (centres unmarked) [compound 149, 5-(4-((1-(5-chloro-4-((3-(3-hydroxy-3-methylbutyl)-1-methyl-2-oxo-2,3-dihydro-1H-benzo[d]imidazol-5-yl)amino)pyrimidin-2-yl)piperidin-4-yl)methyl)piperazin-1-yl)-2-(2,6-dioxopiperidin-3-yl)isoindoline-1,3-dione]
- IC50 (BCL6 [1]; [3]): ≥ 100 nM
- DC50 (BCL6 [2]): > 100 nM

Structure (SMILES): Cn1c(=O)n(CCC(C)(C)O)c2cc(Nc3nc(N4CCN(CC5CCN(c6cccc7c6C(=O)N(C6CCC(=O)NC6=O)C7=O)CC5)CC4)ncc3Cl)ccc21 (centres unmarked) [compound 505, 4-(4-{[4-(5-chloro-4-{[3-(3-hydroxy-3-methylbutyl)-1-methyl-2-oxo-2,3-dihydro-1H-1,3-benzodiazol-5-yl]amino}pyrimidin-2-yl)piperazin-1-yl]methyl}piperidin-1-yl)-2-(2,6-dioxopiperidin-3-yl)-2,3-dihydro-1H-isoindole-1,3-dione]
- IC50 (BCL6 [1]; read-out: IC50): 50 to 100 nM
- Dmax (BCL6 [2]): 50 to 70%

Structure (SMILES): CNC(=O)CCc1cc2cc(Nc3nc(N4CCC(CN5CCN(c6ccc7c(c6)C(=O)N(C6CCC(=O)NC6=O)C7=O)CC5)CC4)ncc3Cl)ccc2n(C)c1=O (centres unmarked) [compound 155, 3-(6-((5-chloro-2-(4-((4-(2-(2,6-dioxopiperidin-3-yl)-1,3-dioxoisoindolin-5-yl)piperazin-1-yl)methyl)piperidin-1-yl)pyrimidin-4-yl)amino)-1-methyl-2-oxo-1,2-dihydroquinolin-3-yl)-N-methylpropanamide]
- IC50 (BCL6 [1]; [3]): ≥ 100 nM
- DC50 (BCL6 [2]): > 100 nM

Structure (SMILES): CNC(=O)COc1cc2cc(Nc3nc(N4CCC5(CN(CC6CCN(c7cccc8c7C(=O)N(C7CCC(=O)NC7=O)C8=O)CC6)C5)C4)ncc3Cl)ccc2n(C(C)C)c1=O (centres unmarked) [compound 519, 2-{[6-({5-chloro-2-[2-({1-[2-(2,6-dioxopiperidin-3-yl)-1,3-dioxo-2,3-dihydro-1H-isoindol-4-yl]piperidin-4-yl}methyl)-2,6-diazaspiro[3.4]octan-6-yl]pyrimidin-4-yl}amino)-2-oxo-1-(propan-2-yl)-1,2-dihydroquinolin-3-yl]oxy}-N-methylacetamide]
- IC50 (BCL6 [1]; read-out: IC50): < 10 nM
- Dmax (BCL6 [2]): ≥ 70%

Structure (SMILES): CNC(=O)COc1cc2cc(Nc3nc(N4CCC(CN5CC(N6CCC(c7ccc8c(c7)C(=O)N(C7CCC(=O)NC7=O)C8=O)CC6)C5)CC4)ncc3Cl)ccc2n(C(C)C)c1=O (centres unmarked) [compound 538, 2-({6-[(5-chloro-2-{4-[(3-{4-[2-(2,6-dioxopiperidin-3-yl)-1,3-dioxo-2,3-dihydro-1H-isoindol-5-yl]piperidin-1-yl}azetidin-1-yl)methyl]piperidin-1-yl}pyrimidin-4-yl)amino]-2-oxo-1-(propan-2-yl)-1,2-dihydroquinolin-3-yl}oxy)-N-methylacetamide]
- IC50 (BCL6 [1]; read-out: IC50): < 10 nM
- Dmax (BCL6 [2]): ≥ 70%

Structure (SMILES): CNC(=O)COc1cc2cc(Nc3nc(N4CCC5(CC4)CC(CN4CCN(c6cccc7c6C(=O)N(C6CCC(=O)NC6=O)C7=O)CC4)C5)ncc3Cl)ccc2n(C(C)C)c1=O (centres unmarked) [compound 484, 2-{[6-({5-chloro-2-[2-({4-[2-(2,6-dioxopiperidin-3-yl)-1,3-dioxo-2,3-dihydro-1H-isoindol-4-yl]piperazin-1-yl}methyl)-7-azaspiro[3.5]nonan-7-yl]pyrimidin-4-yl}amino)-2-oxo-1-(propan-2-yl)-1,2-dihydroquinolin-3-yl]oxy}-N-methylacetamide]
- IC50 (BCL6 [1]; read-out: IC50): < 10 nM
- Dmax (BCL6 [2]): 50 to 70%

Structure (SMILES): CNC(=O)COc1cc2cc(Nc3nc(N4CCC[C@H](COc5cccc6c5C(=O)N(C5CCC(=O)NC5=O)C6=O)C4)ncc3Cl)ccc2n(CC2COC2)c1=O (stereo partly drawn) [compound 491, 2-{[6-({5-chloro-2-[(3S)-3-({[2-(2,6-dioxopiperidin-3-yl)-1,3-dioxo-2,3-dihydro-1H-isoindol-4-yl]oxy}methyl)piperidin-1-yl]pyrimidin-4-yl}amino)-1-[(oxetan-3-yl)methyl]-2-oxo-1,2-dihydroquinolin-3-yl]oxy}-N-methylacetamide]
- IC50 (BCL6 [1]; read-out: IC50): ≥ 100 nM
- Dmax (BCL6 [2]): ≥ 70%

Structure (SMILES): CNC(=O)COc1cc2cc(Nc3nc(N4CCC(CN5CCC6(C5)CN(c5ccc7c(c5)C(=O)N(C5CCC(=O)NC5=O)C7=O)C6)CC4)ncc3Cl)ccc2n(C(C)C)c1=O (centres unmarked) [compound 510, 2-{[6-({5-chloro-2-[4-({2-[2-(2,6-dioxopiperidin-3-yl)-1,3-dioxo-2,3-dihydro-1H-isoindol-5-yl]-2,6-diazaspiro[3.4]octan-6-yl}methyl)piperidin-1-yl]pyrimidin-4-yl}amino)-2-oxo-1-(propan-2-yl)-1,2-dihydroquinolin-3-yl]oxy}-N-methylacetamide]
- IC50 (BCL6 [1]; read-out: IC50): < 10 nM
- Dmax (BCL6 [2]): 50 to 70%

Structure (SMILES): CNC(=O)COc1cc2cc(Nc3nc(N4CCOCC4)ncc3Cl)ccc2n(CCCOc2ccc3c(c2)C(=O)N(C2CCC(=O)NC2=O)C3=O)c1=O (centres unmarked) [compound 474, 2-[(6-{[5-chloro-2-(morpholin-4-yl)pyrimidin-4-yl]amino}-1-(3-{[2-(2,6-dioxopiperidin-3-yl)-1,3-dioxo-2,3-dihydro-1H-isoindol-5-yl]oxy}propyl)-2-oxo-1,2-dihydroquinolin-3-yl)oxy]-N-methylacetamide]
- IC50 (BCL6 [1]; read-out: IC50): 50 to 100 nM
- Dmax (BCL6 [2]): < 50%

Structure (SMILES): CNC(=O)COc1cc2cc(Nc3nc(N4CCC5(CCN(CC6CCN(c7ccc8c(c7)C(=O)N(C7CCC(=O)NC7=O)C8=O)CC6)C5)CC4)ncc3Cl)ccc2n(C(C)C)c1=O (centres unmarked) [compound 507, 2-{[6-({5-chloro-2-[2-({1-[2-(2,6-dioxopiperidin-3-yl)-1,3-dioxo-2,3-dihydro-1H-isoindol-5-yl]piperidin-4-yl}methyl)-2,8-diazaspiro[4.5]decan-8-yl]pyrimidin-4-yl}amino)-2-oxo-1-(propan-2-yl)-1,2-dihydroquinolin-3-yl]oxy}-N-methylacetamide]
- IC50 (BCL6 [1]; read-out: IC50): < 10 nM
- Dmax (BCL6 [2]): ≥ 70%

Structure (SMILES): CNC(=O)COc1cc2cc(Nc3nc(N4CCN(CC5CCN(c6cnc(C(=O)NC7CCC(=O)NC7=O)nc6)CC5)CC4)ncc3Cl)ccc2n(C)c1=O (centres unmarked) [compound 273, 5-[4-({4-[5-chloro-4-({1-methyl-3-[(methylcarbamoyl)methoxy]-2-oxo-1,2-dihydroquinolin-6-yl}amino)pyrimidin-2-yl]piperazin-1-yl}methyl)piperidin-1-yl]-N-(2,6-dioxopiperidin-3-yl)pyrimidine-2-carboxamide]
- EC50 (BCL6 [1]): 10 to 50 nM
- IC50 (BCL6 [2]): 50 to 100 nM
- Dmax (BCL6 [2]): < 50%

Structure (SMILES): CNC(=O)COc1cc2cc(Nc3nc(N4CCO[C@H](COc5ccc6c(c5)C(=O)N(C5CCC(=O)NC5=O)C6=O)C4)ncc3Cl)ccc2n(C)c1=O (stereo partly drawn) [compound 228, 2-((6-((5-chloro-2-((2S)-2-(((2-(2,6-dioxopiperidin-3-yl)-1,3-dioxoisoindolin-5-yl)oxy)methyl)morpholino)pyrimidin-4-yl)amino)-1-methyl-2-oxo-1,2-dihydroquinolin-3-yl)oxy)-N-methylacetamide]
- EC50 (BCL6 [1]): > 100 nM
- IC50 (BCL6 [2]): ≥ 100 nM
- Dmax (BCL6 [2]): 50 to 70%

Structure (SMILES): CNC(=O)COc1cc2cc(Nc3nc(N4CCC5(CCN(CC6CCN(c7cccc8c7C(=O)N(C7CCC(=O)NC7=O)C8=O)CC6)C5)CC4)ncc3Cl)ccc2n(C(C)C)c1=O (centres unmarked) [compound 508, 2-{[6-({5-chloro-2-[2-({1-[2-(2,6-dioxopiperidin-3-yl)-1,3-dioxo-2,3-dihydro-1H-isoindol-4-yl]piperidin-4-yl}methyl)-2,8-diazaspiro[4.5]decan-8-yl]pyrimidin-4-yl}amino)-2-oxo-1-(propan-2-yl)-1,2-dihydroquinolin-3-yl]oxy}-N-methylacetamide]
- IC50 (BCL6 [1]; read-out: IC50): < 10 nM
- Dmax (BCL6 [2]): ≥ 70%

Structure (SMILES): CNC(=O)COc1cc2cc(Nc3nc(N4CCC(OCCCCOc5cc(-c6scnc6C)ccc5CNC(=O)[C@@H]5C[C@@H](O)CN5C(=O)C(c5cc(C)no5)C(C)C)CC4)ncc3Cl)ccc2n(C)c1=O (stereo partly drawn) [compound 159, (2S,4R)-N-(2-(4-((1-(5-chloro-4-((1-methyl-3-(2-(methylamino)-2-oxoethoxy)-2-oxo-1,2-dihydroquinolin-6-yl)amino)pyrimidin-2-yl)piperidin-4-yl)oxy)butoxy)-4-(4-methylthiazol-5-yl)benzyl)-4-hydroxy-1-(3-methyl-2-(3-methylisoxazol-5-yl)butanoyl)pyrrolidine-2-carboxamide]
- IC50 (BCL6 [1]; [3]): 10 to 50 nM
- Dmax (BCL6 [2]; maximum, class symbols A-C): < 50%
- DC50 (BCL6 [2]): > 100 nM

Structure (SMILES): CNC(=O)COc1cc2cc(Nc3nc(N4CCC(CN5CC6(CCN(c7cccc8c7CN(C7CCC(=O)NC7=O)C8=O)CC6)C5)CC4)ncc3Cl)ccc2n(C(C)C)c1=O (centres unmarked) [compound 448, 2-{[6-({5-chloro-2-[4-({7-[2-(2,6-dioxopiperidin-3-yl)-1-oxo-2,3-dihydro-1H-isoindol-4-yl]-2,7-diazaspiro[3.5]nonan-2-yl}methyl)piperidin-1-yl]pyrimidin-4-yl}amino)-2-oxo-1-(propan-2-yl)-1,2-dihydroquinolin-3-yl]oxy}-N-methylacetamide]
- IC50 (BCL6 [1]; read-out: IC50): < 10 nM
- Dmax (BCL6 [2]): 50 to 70%

Structure (SMILES): Cn1c(=O)c(-c2cnoc2)cc2cc(Nc3nc(N4CCC(CN5CCN(c6ccc7c(c6)C(=O)N(C6CCC(=O)NC6=O)C7=O)CC5)CC4)ncc3Cl)ccc21 (centres unmarked) [compound 235, 5-(4-((1-(5-chloro-4-((3-(isoxazol-4-yl)-1-methyl-2-oxo-1,2-dihydroquinolin-6-yl)amino)pyrimidin-2-yl)piperidin-4-yl)methyl)piperazin-1-yl)-2-(2,6-dioxopiperidin-3-yl)isoindoline-1,3-dione]
- EC50 (BCL6 [1]): > 100 nM
- IC50 (BCL6 [2]): ≥ 100 nM
